Experimental data reported in PubChem BioAssay AID332 (DTP/NCI, 2004).
Where “and” joins values, the source holds several entries; their conditions need not be identical. Equal values may be shown once. Results filed as inconclusive are left out.

System: mice, ADJ-PC-20 plasma cell tumor sc, T/C %
Assay: NCI In Vivo Anticancer Drug Screen. Data for tumor model ADJ-PC-20 Plasma Cell (subcutaneous) in unknown mice
Conditions: endpoint: mean tumor weight, higher = larger tumour
Protocol: The antitumor activity of compounds was measured in mice bearing transplantable tumors. Survival or tumor size were measured and the results are expressed as the measurement made in the treated group (T) divided by the measurement made in the vehicle treated control group (C). The tumor model used in this assay is ADJ-PC-20 Plasma Cell (subcutaneous) in unknown mice

[1] = dose: 25.0 mg/kg/injection, schedule: Q01DX010 (ip), vehicle: carboxymethylcellulose (CMC)
[2] = dose: 37.5 mg/kg/injection, schedule: Q01DX010 (ip), vehicle: carboxymethylcellulose (CMC)

CC[C@]1(O)C[C@H]2CN(CCc3c([nH]c4ccccc34)[C@@](C(=O)OC)(c3cc4c(cc3OC)N(C=O)[C@H]3[C@@](O)(C(=O)OC)[C@H](OC(C)=O)[C@]5(CC)C=CCN6CC[C@]43[C@@H]65)C2)C1
T/C (dose: 0.12 mg/kg/injection, schedule: Q01DX010 (ip), vehicle: water): 109 % of control
T/C (dose: 0.5 mg/kg/injection, schedule: Q01DX010 (ip), vehicle: water): 105 % of control
T/C (dose: 31.0 micrograms/kg/injection, schedule: Q01DX010 (ip), vehicle: water): 97 % of control
T/C (dose: 62.0 micrograms/kg/injection, schedule: Q01DX010 (ip), vehicle: water): 95 % of control
T/C (dose: 125.0 micrograms/kg/injection, schedule: Q01DX010 (ip), vehicle: water): 90 % of control
T/C (dose: 250.0 micrograms/kg/injection, schedule: Q01DX010 (ip), vehicle: water): 63 % of control

O=c1cnn(C2OC(CO)C(O)C2O)c(=O)[nH]1 (configuration not stated)
T/C (dose: 31.0 mg/kg/injection, schedule: Q01DX011 (ip), vehicle: water): 51 % of control
T/C (dose: 62.5 mg/kg/injection, schedule: Q01DX011 (ip), vehicle: water): 52 % of control
T/C (dose: 125.0 mg/kg/injection, schedule: Q01DX010 (ip), vehicle: water): 41 % of control
T/C (dose: 125.0 mg/kg/injection, schedule: Q01DX011 (ip), vehicle: water): 69 % of control
T/C (dose: 250.0 mg/kg/injection, schedule: Q01DX010 (ip), vehicle: water): 49 % of control
T/C (dose: 250.0 mg/kg/injection, schedule: Q01DX011 (ip), vehicle: water): 30 % of control

NC(=O)c1ccc(N)nc1
T/C (dose: 0.63 mg/kg/injection, schedule: Q01DX010 (ip), vehicle: saline): 69 % of control
T/C (dose: 1.25 mg/kg/injection, schedule: Q01DX010 (ip), vehicle: saline): 52 % of control
T/C (dose: 1.25 mg/kg/injection, schedule: Q01DX010 (ip), vehicle: water): 35 % of control
T/C (dose: 2.5 mg/kg/injection, schedule: Q01DX010 (ip), vehicle: water): 18 % of control

Nc1nc(N)c2nc(CNc3ccc(C(=O)NC(CCC(=O)O)C(=O)O)cc3)cnc2n1 (configuration not stated)
T/C (dose: 63.0 micrograms/kg/injection, schedule: Q01DX010 (ip), vehicle: alkali diluted with saline): 86 % of control
T/C (dose: 125.0 micrograms/kg/injection, schedule: Q01DX010 (ip), vehicle: alkali diluted with saline): 82 % of control

CSc1ncnc2c1ncn2C1OC(CO)C(O)C1O (configuration not stated)
T/C (dose: 3.1 mg/kg/injection, schedule: Q01DX010 (ip), vehicle: carboxymethylcellulose (CMC)): 84 % of control
T/C (dose: 6.25 mg/kg/injection, schedule: Q01DX010 (ip), vehicle: carboxymethylcellulose (CMC)): 98 % of control
T/C (dose: 12.5 mg/kg/injection, schedule: Q01DX010 (ip), vehicle: carboxymethylcellulose (CMC)): 104 % of control
T/C [1]: 14 % of control

CCCNc1ncnc2[nH]ncc12
T/C (dose: 5.0 mg/kg/injection, schedule: Q01DX010 (ip), vehicle: water): 97 % of control
T/C (dose: 10.0 mg/kg/injection, schedule: Q01DX010 (ip), vehicle: water): 86 % of control
T/C (dose: 20.0 mg/kg/injection, schedule: Q01DX010 (ip), vehicle: water): 95 % of control

Nc1nc(=S)c2[nH]cnc2[nH]1
T/C (dose: 0.12 mg/kg/injection, schedule: Q01DX010 (ip), vehicle: carboxymethylcellulose (CMC)): 112 % of control
T/C (dose: 0.25 mg/kg/injection, schedule: Q01DX010 (ip), vehicle: carboxymethylcellulose (CMC)): 39 % of control and 62 % of control
T/C (dose: 0.5 mg/kg/injection, schedule: Q01DX010 (ip), vehicle: carboxymethylcellulose (CMC)): 9 % of control
T/C (dose: 62.0 micrograms/kg/injection, schedule: Q01DX010 (ip), vehicle: carboxymethylcellulose (CMC)): 52 % of control
T/C (dose: 125.0 micrograms/kg/injection, schedule: Q01DX010 (ip), vehicle: carboxymethylcellulose (CMC)): 23 % of control
T/C (dose: 250.0 micrograms/kg/injection, schedule: Q01DX010 (ip), vehicle: carboxymethylcellulose (CMC)): 14 % of control

Nc1ncnc2c1ccn2C1OC(CO)C(O)C1O (configuration not stated)
T/C (dose: 0.63 mg/kg/injection, schedule: Q01DX010 (ip), vehicle: carboxymethylcellulose (CMC)): 94 % of control

CC[C@H](c1ccc(O)cc1)[C@@H](CC)c1ccc(O)cc1
T/C (dose: 31.25 mg/kg/injection, schedule: Q01DX010 (sc), vehicle: steriod suspending solution): 185 % of control
T/C (dose: 62.5 mg/kg/injection, schedule: Q01DX010 (sc), vehicle: steriod suspending solution): 180 % of control

O=C1CCC(N2C(=O)c3ccccc3C2=O)C(=O)N1 (configuration not stated)
T/C (dose: 18.75 mg/kg/injection, schedule: Q01DX010 (ip), vehicle: carboxymethylcellulose (CMC)): 55 % of control
T/C [2]: 104 % of control
T/C (dose: 75.0 mg/kg/injection, schedule: Q01DX010 (ip), vehicle: carboxymethylcellulose (CMC)): 107 % of control
T/C (dose: 150.0 mg/kg/injection, schedule: Q01DX010 (ip), vehicle: carboxymethylcellulose (CMC)): 82 % of control and 99 % of control
T/C (dose: 300.0 mg/kg/injection, schedule: Q01DX010 (ip), vehicle: carboxymethylcellulose (CMC)): 107 % of control and 113 % of control
T/C (dose: 600.0 mg/kg/injection, schedule: Q01DX010 (ip), vehicle: carboxymethylcellulose (CMC)): 82 % of control

COc1ccc(/C=N/NC(N)=S)cc1
T/C (dose: 75.0 mg/kg/injection, schedule: Q01DX010 (ip), vehicle: saline): 87 % of control
T/C (dose: 150.0 mg/kg/injection, schedule: Q01DX010 (ip), vehicle: saline): 99 % of control
T/C (dose: 300.0 mg/kg/injection, schedule: Q01DX010 (ip), vehicle: saline): 82 % of control
T/C (dose: 600.0 mg/kg/injection, schedule: Q01DX010 (ip), vehicle: saline): 85 % of control

CCOC(N)=O
T/C (dose: 250.0 mg/kg/injection, schedule: Q01DX010 (ip), vehicle: saline): 80 % of control and 95 % of control

O=C(Nc1ccc(C2=NCCN2)cc1)c1cccc(C(=O)Nc2ccc(C3=NCCN3)cc2)c1
T/C (dose: 9.4 mg/kg/injection, schedule: Q01DX010 (ip), vehicle: carboxymethylcellulose (CMC)): 154 % of control
T/C (dose: 18.8 mg/kg/injection, schedule: Q01DX010 (ip), vehicle: carboxymethylcellulose (CMC)): 214 % of control
T/C [2]: 187 % of control

O=C(Nc1ccc(C2=NCCN2)cc1)c1ccc(C(=O)Nc2ccc(C3=NCCN3)cc2)cc1
T/C [1]: 73 % of control
T/C (dose: 50.0 mg/kg/injection, schedule: Q01DX010 (ip), vehicle: carboxymethylcellulose (CMC)): 78 % of control
T/C (dose: 100.0 mg/kg/injection, schedule: Q01DX010 (ip), vehicle: carboxymethylcellulose (CMC)): 60 % of control
T/C (dose: 200.0 mg/kg/injection, schedule: Q01DX010 (ip), vehicle: carboxymethylcellulose (CMC)): 71 % of control
